Tests used:
Format in all cases: cell-based
[1] = test system: human monocyte derived macrophages; experiment: TNF ELISA in human monocyte derived macrophages; details: 20-24 hours
Experimental: (§1) FIGS. 4A-4D. PVP-179 activates human macrophages and dendritic cells. FIGS. 4A-4B: Murine mononuclear cells were isolated from bone marrow and induced differentiation into dendritic cells (with GM-CSF and IL-4). After 5 days of culturing, these bone-marrow-derived dendritic cells (BMDCs) were stimulated with PVP-179 or MPLA for 18 hours at indicated concentrations. The supernatants were analyzed via ELISA where each dot in the graph represents the mean production of mTNF (FIG. 4A) and mIL-6 (FIG. 4B). N=6 for PVP-179, N=3 for MPLA. Two-way Anova was performed to determine statistical significance. The comparisons shown are compared to control group (0 M PVP-179). FIGS. 4C-4D: PBMCs were isolated from blood of adult human donors. CD14+ monocytes were specifically isolated from the PBMCs and were then cultured in 10% autologous plasma and induced to differentiate into macrophages with M-CSF (FIG. 4C), or dendritic cells with GM-CSF and IL-4 (FIG. 4D). After 5 days, cells were harvested from each differentiated cell type (macrophages: Mφ; dendritic cells: MoDCs) and a 96-well plate was setup with 100,000 cells/well. Cells were then stimulated with indicated concentrations of PVP-179 or R848 (33 μM) or LPS (100 ng/mL). After 20-24 hours of incubation, supernatants were harvested and applied to TNF ELISA. N=2 donors.

[2] = test system: human monocyte derived dendritic cells; experiment: TNF ELISA in human monocyte derived dendritic cells (MoDCs); details: 20-24 hours
Experimental: as §1

[3] = target: T1, hTLR8 (Homo sapiens, UniProt Q9NR97); experiment: HEK-293 hTLR8 NF-κB/AP-1 SEAP reporter assay
T1 construct: host or cells: HEK-293 reporter cells
T1 sequence (Q9NR97 27-1041): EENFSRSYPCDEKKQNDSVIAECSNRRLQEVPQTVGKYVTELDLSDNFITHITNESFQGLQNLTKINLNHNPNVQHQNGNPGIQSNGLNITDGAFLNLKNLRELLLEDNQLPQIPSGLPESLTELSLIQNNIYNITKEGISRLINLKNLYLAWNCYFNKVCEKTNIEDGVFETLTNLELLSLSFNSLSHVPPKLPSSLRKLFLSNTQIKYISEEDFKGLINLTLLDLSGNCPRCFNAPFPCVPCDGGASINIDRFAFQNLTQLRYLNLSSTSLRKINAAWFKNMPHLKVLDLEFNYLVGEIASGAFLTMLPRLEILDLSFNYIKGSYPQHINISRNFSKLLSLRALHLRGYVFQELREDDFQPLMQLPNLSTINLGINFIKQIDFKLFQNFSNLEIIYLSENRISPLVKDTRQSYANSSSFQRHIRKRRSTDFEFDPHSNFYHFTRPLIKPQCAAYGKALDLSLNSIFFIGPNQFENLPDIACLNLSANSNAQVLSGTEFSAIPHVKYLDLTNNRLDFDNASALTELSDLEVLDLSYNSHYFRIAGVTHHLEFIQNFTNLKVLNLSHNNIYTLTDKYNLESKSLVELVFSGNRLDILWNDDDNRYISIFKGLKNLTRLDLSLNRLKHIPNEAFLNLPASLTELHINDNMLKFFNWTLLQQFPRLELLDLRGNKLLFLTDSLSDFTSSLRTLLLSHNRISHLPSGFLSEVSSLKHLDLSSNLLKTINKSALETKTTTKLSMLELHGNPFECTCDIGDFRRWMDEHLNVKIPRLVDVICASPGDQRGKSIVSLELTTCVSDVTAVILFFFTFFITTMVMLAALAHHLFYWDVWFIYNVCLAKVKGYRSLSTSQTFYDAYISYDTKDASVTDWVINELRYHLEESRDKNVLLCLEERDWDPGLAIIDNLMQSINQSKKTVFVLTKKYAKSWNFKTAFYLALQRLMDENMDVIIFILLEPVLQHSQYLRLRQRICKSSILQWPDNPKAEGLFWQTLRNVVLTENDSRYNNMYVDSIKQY
Experimental: (§2) FIGS. 3A-3E. PVP-179 is a TLR8 agonist. FIG. 3A: PVP-179 was sent to InvivoGen for PRR ligand screening service. Various cells lines were utilized to screen for PVP-179-induced ([…]) activation of TLRs, NOD1/2, RIG-I/MDA-5, Dectin-1 or Mincle receptor. The heat-map depicts percentage activity compared to the positive control for each receptor. FIG. 3B: PVP-179 induced activity (% activity compared to the positive control: CL075 at 1 μg/mL) in HEK-293 cells specifically expressing hTLR8. In brief, these cells have an NF-κB/AP-1-inducible secreted embryonic alkaline phosphatase (SEAP) reporter gene which allows monitoring of signaling via TLR8. After incubation for 16-24 hours, supernatant harvested from the cells is mixed with media containing SEAP-substrate and the optical density (OD) is measured at 650 nm using a spectrophotometer. FIG. 3C: As in FIG. 3B, HEK cells specifically expressing hTLR2, hTLR7, or hTLR8, in addition to the HEK-Null cell line carrying only the reporter gene, were stimulated with the indicated concentrations of PVP-179. […] PVP-179 activity is expressed as a percentage of NF-κB induced in the cells stimulated with TNF (positive control for each cell line). […] The supernatants were harvested after 20-24 hours and SEAP production (to assess NF-κB activity) was measured using QUANTIBlue assay. […]

[4] = test system: human adult PBMCs; experiment: TNF ELISA in human adult PBMCs after TLR8 inhibitor CUCPT-9a; details: CUCPT-9a pre-incubation
Experimental: FIG. 3E: As in FIG. 3D, PBMCs isolated from human adult donors were cultured with 10% autologous plasma and incubated with CUCPT-9a. After inhibition, cells were stimulated with DMSO, TL8-506 (TLR8 specific agonist), LPS (TLR4 agonist; negative control) and different concentrations of PVP-179. Supernatants were harvested after 20-24 hours and analyzed for production of TNF via ELISA. N=6 donors.
Next a TLR8-specific pharmacological inhibitor (CUCPT-9a), which stabilizes the TLR8 dimer in its resting state, was used to inhibit activity downstream of TLR8.

[5] = target: T2, hTLR2 (Homo sapiens, UniProt O60603); experiment: HEK hTLR2 NF-κB SEAP reporter assay; details: even at higher concentrations
T2 construct: expressed in transfected cells; host or cells: HEK reporter cells
Experimental: as §2

T2 sequence (O60603 21-784): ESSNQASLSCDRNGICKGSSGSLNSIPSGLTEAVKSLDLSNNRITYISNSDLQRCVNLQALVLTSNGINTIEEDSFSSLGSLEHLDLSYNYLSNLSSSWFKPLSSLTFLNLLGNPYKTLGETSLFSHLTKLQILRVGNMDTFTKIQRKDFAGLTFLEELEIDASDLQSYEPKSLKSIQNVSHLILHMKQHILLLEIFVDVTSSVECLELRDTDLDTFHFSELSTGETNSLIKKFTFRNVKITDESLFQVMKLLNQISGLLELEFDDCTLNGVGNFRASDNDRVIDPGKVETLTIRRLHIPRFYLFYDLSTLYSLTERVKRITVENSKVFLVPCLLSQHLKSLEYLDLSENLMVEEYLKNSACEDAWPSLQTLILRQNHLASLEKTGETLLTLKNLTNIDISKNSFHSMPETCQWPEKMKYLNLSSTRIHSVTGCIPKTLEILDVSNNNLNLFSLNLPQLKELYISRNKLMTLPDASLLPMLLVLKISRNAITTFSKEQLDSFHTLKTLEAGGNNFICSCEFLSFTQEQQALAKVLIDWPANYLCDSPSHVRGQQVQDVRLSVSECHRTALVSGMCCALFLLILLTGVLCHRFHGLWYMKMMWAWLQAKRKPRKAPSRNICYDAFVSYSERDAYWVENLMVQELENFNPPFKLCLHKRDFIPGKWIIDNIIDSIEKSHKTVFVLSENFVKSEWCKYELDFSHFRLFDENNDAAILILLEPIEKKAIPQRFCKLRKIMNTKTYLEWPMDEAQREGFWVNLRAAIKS

For CCCCn1c(/N=C/c2nc3ccccc3n2C)nc2ccccc21 [PVP-179], the TNF-inducing activity [1] was “concentration-dependent activity”, the TNF-inducing activity [2] was “concentration-dependent activity” and the “NF-κB activity in HEK cells expressing hTLR8” value ([3]; 20-24 hours) was “concentration-dependent activity”. For the same compound, the “activity in HEK-hTLR8 cells after TLR8 inhibitor CUCPT-9a” value ([3]; CUCPT-9a 1 μM, PVP-179 at 33 μM or above) was “significantly blocked”, the “PVP-179 induced TNF production after CUCPT-9a” value [4] was “completely blocked” and the “NF-κB activity in HEK cells expressing hTLR2” value [5] was “no activity was detected”.

— patent publication US20250041278A1, “TLR8 AGONIST FOR MODULATING IMMUNE RESPONSE” (The Children's Medical Center Corporation, priority 2021, published 2025)
